Source: US20250041277A1, “METHODS AND DOSING REGIMENS COMPRISING A CDK2 INHIBITOR AND A CDK4 INHIBITOR FOR TREATING CANCER” (PFIZER INC., priority 2021, published 2025)

Key:
H1373 = assay: Combinatorial activity in LUAD cell line H1373; assay type: cell-based; conditions: Homo sapiens, NCI-H1373; H1373, KRAS G12C; single agent; read-out: (nM) s.a.
Method: (§1) Combinatorial activity of PF-07104091 and PF-07220060 was assessed in LUADs as single agents (s.a.) or in combination.

HCC44 (RB-) = assay: Combinatorial activity in LUAD cell line HCC44; assay type: cell-based; conditions: Homo sapiens, KRAS G12C, single agent, read-out: (nM) s.a.
Method: as §1

[1] = test system: HCC1428 breast cancer model; assay: In vivo efficacy, HR+/HER2− HCC1428 breast cancer model (Example 3); set-up: species or system NSG mice; conditions: HCC1428, Day 42; PO BID: PF-07104091 150 mpk, PF-07220060 60 mpk, palbociclib 10 mpk
Method: Female NSG mice (Jackson Lab) were subcutaneously implanted with fragment (27 mm^3 to 64 mm^3 size) into the dorsal region. All mice for T47D, HCC1428 and ST941 PBR studies were supplemented with 8.5 μg/mL estradiol water (β-Estradiol Sigma-Aldrich, cat #E2758-5G) and gave ad libitum till end of study. For the in vivo efficacy studies, tumor volume and body weights were measured twice a week. Tumor volume was calculated using the [(Length×Width×Width)/2)] formula. TGI was calculated as 100*(1−ΔT/ΔC). The ΔC (ΔT) was obtained by subtracting the mean tumor burden in the vehicle (treated) group on the first day of treatment (Day 0) from the mean tumor burden in vehicle (treated) group on the assessment day. Statistical analysis was performed using ANCOVA when the mean tumor volume in vehicle treated mice reached tumor cutoff size.
The HCC1428 model was established by implanting passage 4 tumor fragments into recipient mice. To establish the HCC1428 donor mice, tumor cells (5×10^6 cell/mouse with 50% Cultrex® Basement Membrane Matrix) were subcutaneously implanted in female NSG mice. Once reaching a range of 700 to 800 mm^3, donor tumors were subsequently transplanted into secondary recipient mice for a study expansion. […] PF-07104091 (lot 016), PF-07220060 (lot 019) and PD-0332991 (lot GR08498) were administered (PO.) BID (7 hr apart). All mice received treatment continuously until Day 42. TGI was assessed on Day 42 post first dose.

H2030 = assay: Combinatorial activity in LUAD cell line H2030; assay type: cell-based; conditions: Homo sapiens, NCI-H2030; H2030, KRAS G12C; single agent; read-out: (nM) s.a.
Method: as §1

H358 = assay: Combinatorial activity in LUAD cell line H358; assay type: cell-based; conditions: Homo sapiens, NCI-H358; H358, KRAS G12C; single agent; read-out: (nM) s.a.
Method: as §1

H23 = assay: Combinatorial activity in LUAD cell line H23; assay type: cell-based; conditions: Homo sapiens, NCI-H23; H23, KRAS G12C; single agent; read-out: (nM) s.a.
Method: as §1

SW1573 = assay: Combinatorial activity in LUAD cell line SW1573; assay type: cell-based; conditions: Homo sapiens; SW1573, KRAS G12C; single agent; read-out: (nM) s.a.
Method: as §1

H1792 = assay: Combinatorial activity in LUAD cell line H1792; assay type: cell-based; conditions: Homo sapiens, NCI-H1792; H1792, KRAS G12C; single agent; read-out: (nM) s.a.
Method: as §1

IC50 (H1373) | IC50 (HCC44 (RB-)) | IC50 (H2030) | IC50 (H358) | IC50 (H23) | IC50 (SW1573) | IC50 (H1792) | SMILES | TGI % [1]
470 nM | > 1000 nM | 950 nM | 120 nM | 285 nM | > 1000 nM | 210 nM | CC(C)n1c(C(C)(C)O)nc2c(F)cc(-c3nc(N[C@@H]4CCOC[C@H]4O)ncc3Cl)cc21 [PF-07220060, 1,5-anhydro-3-({5-chloro-4-[4-fluoro-2-(2-hydroxypropan-2-yl)-1-(propan-2-yl)-1H-benzimidazol-6-yl]pyrimidin-2-yl}amino)-2,3-dideoxy-D-threo-pentitol] | 89%
– | – | – | – | – | – | – | COCc1cc(C(=O)Nc2cc([C@H]3CC[C@@H](OC(=O)NC(C)C)C3)[nH]n2)n(C)n1 [PF-07104091, (1R,3S)-3-[3-({[3-(methoxymethyl)-1-methyl-1H-pyrazol-5-yl]carbonyl}amino)-1H-pyrazol-5-yl]cyclopentyl propan-2-ylcarbamate] | 95%
